Values of other authors, collected in patent US8618345B2 (priority 2006, dated 2013).

Key:
[1] = in vivo
[2] = ratio to inorganic arsenic (arsenic trioxide)

Compound: C[As+](C)(C)CC(=O)[O-] [arsenobetaine]
- demethylation if accumulated in the body [1]: no demethylation
- half life of a substance in the body (BHT) [1]: 3.5 h
- toxicity compared with that of inorganic arsenic (arsenic trioxide) [2]: approximately 1/300

Compound: arsenic trioxide [inorganic arsenic, reference compound]
- half life of a substance in the body (BHT) [1]: 28 h
